Key:
Experiment in all cases: relative viability (nuclei count vs DMSO), 5 days (fraction); higher = more cells survive
[1] = compound: CCN(CCO)CCCC(C)Nc1ccnc2cc(Cl)ccc12 [Hydroxychloroquine] + CC(=O)Nc1cccc(-n2c(=O)n(C3CC3)c(=O)c3c(Nc4ccc(I)cc4F)n(C)c(=O)c(C)c32)c1 [Trametinib] (partner 0.02 µM)
Procedure, shortened: (§1)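 Relative viability divides the nuclei count in treated wells by that in vehicle wells. Lung cancer cell lines were seeded in 1536-well plates, dosed by pin tool the next day, and fixed and stained after 5 days in one step with final 0.05% Triton X-100, 1% formaldehyde and 1 ug/ml Hoechst. Dosing was a single drug or a fixed anchor-drug dose plus five library-drug doses (not always all listed) in √10 steps, and values are medians of duplicate plates imaged at 4×.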

[2] = compound: CCN(CCO)CCCC(C)Nc1ccnc2cc(Cl)ccc12 [Hydroxychloroquine] + CS(=O)(=O)CCNCc1ccc(-c2ccc3ncnc(Nc4ccc(OCc5cccc(F)c5)c(Cl)c4)c3c2)o1 [Lapatinib] (partner 2 µM)
Procedure, shortened: as §1

[3] = compound: CCN(CCO)CCCC(C)Nc1ccnc2cc(Cl)ccc12 [Hydroxychloroquine] + N=C(N)NC(=N)NCCc1ccccc1 [Phenformin] (partner 250 µM)
Procedure, shortened: as §1

[4] = compound: CCN(CCO)CCCC(C)Nc1ccnc2cc(Cl)ccc12 [Hydroxychloroquine] + O=C(c1cc(Cc2n[nH]c(=O)c3ccccc23)ccc1F)N1CCN(C(=O)C2CC2)CC1 [Olaparib] (partner 8 µM)
Procedure, shortened: as §1

| Cell Line | relative viability ([1]; first compound 0.5 µM) | relative viability ([1]; first compound 1.581 µM) | relative viability ([1]; first compound 5 µM) | relative viability ([1]; first compound 15.81 µM) | relative viability ([1]; first compound 50 µM) | relative viability ([2]; first compound 0.5 µM) | relative viability ([2]; first compound 1.581 µM) | relative viability ([2]; first compound 5 µM) | relative viability ([2]; first compound 15.81 µM) | relative viability ([2]; first compound 50 µM) | relative viability ([3]; first compound 0.5 µM) | relative viability ([3]; first compound 1.581 µM) | relative viability ([3]; first compound 5 µM) | relative viability ([3]; first compound 15.81 µM) | relative viability ([3]; first compound 50 µM) | relative viability ([4]; first compound 0.5 µM) | relative viability ([4]; first compound 1.581 µM) | relative viability ([4]; first compound 5 µM) | relative viability ([4]; first compound 15.81 µM) | relative viability ([4]; first compound 50 µM) |
| --- | --- | --- | --- | --- | --- | --- | --- | --- | --- | --- | --- | --- | --- | --- | --- | --- | --- | --- | --- | --- |
| LU99A | 0.626 | 0.505 | 0.542 | 0.527 | 0.577 | 1.05 | 0.937 | 0.871 | 1.08 | 1.01 | 0.765 | 0.735 | 0.873 | 0.751 | 0.799 | 0.261 | 0.265 | 0.228 | 0.299 | 0.254 |
| HCC-366 | 0.334 | 0.323 | 0.355 | 0.282 | 0.458 | 0.968 | 1.06 | 1.02 | 1.15 | 1.19 | 0.564 | 0.558 | 0.597 | 0.605 | 0.657 | 0.312 | 0.362 | 0.354 | 0.342 | 0.375 |
| EKVX | 0.348 | 0.302 | 0.316 | 0.637 | 0.352 | 0.246 | 0.181 | 0.224 | 0.168 | 0.199 | 0.249 | 0.192 | 0.249 | 0.243 | 0.208 | 0.978 | 0.755 | 0.769 | 0.763 | 1.04 |
| NCI-H522 | 0.674 |  | 0.915 | 0.65 | 0.805 |  |  |  |  |  | 0.647 | 0.581 | 0.702 | 0.717 | 0.623 | 0.578 |  | 0.68 | 0.642 | 0.608 |
| NCI-H1755 | 0.743 | 0.729 | 0.776 | 0.726 | 0.732 | 1.06 | 0.875 | 1.02 | 1 | 1.02 | 0.628 | 0.529 | 0.63 | 0.636 | 0.572 | 0.861 | 0.841 | 0.841 | 0.912 | 0.827 |
| NCI-H650 | 0.877 | 0.876 | 0.965 | 1.03 | 0.969 | 0.894 | 0.862 |  | 0.892 | 1.09 | 0.479 | 0.438 | 0.413 | 0.455 | 0.473 | 0.423 | 0.364 | 0.326 | 0.374 | 0.315 |
| LC-2-ad | 0.925 | 0.98 | 0.941 | 0.865 | 0.924 | 0.977 | 0.958 | 0.979 | 0.999 | 1.02 | 0.587 | 0.521 | 0.573 | 0.632 | 0.54 | 0.673 | 0.664 | 0.738 | 0.725 | 0.772 |
| NCI-H1793 | 0.405 | 0.463 | 0.475 | 0.416 | 0.344 | 0.57 | 0.556 | 0.649 | 0.603 | 0.691 | 0.38 | 0.325 | 0.364 | 0.351 | 0.36 | 0.866 | 0.814 | 0.878 | 0.906 | 0.728 |

From the supplement of paper PMC10307832
